Reference: patent US12110299B2, “Thiazole derivatives and pharmaceutically acceptable salts thereof” (YUNGJIN PHARM. CO., LTD., priority 2018, dated 2024)

Tests used:
MDA-MB-468 cells [1] = assay: Anti-proliferative effect on MDA-MB-468 cells, inhibition rate at 100 nM (tetrazolium salt method); assay type: cell-based; conditions: Homo sapiens, 72 hours
Protocol: Representative compounds of the present invention were tested at different concentrations (from 1000 nM to 25 nM) to assess their ability to inhibit the proliferation of MDA-MB-468 cells. Cells were grown in RPMI 1640 (Welgene)+10% FBS (Gibco)+1% penicillin/streptomycin (Gibco) and cultured at 37° C. in a humidified chamber in the presence of 5% CO2.
MDA-MB-468 cells cultured in 96-well cell culture plates were treated with representative compounds of the present invention and cultured for 72 hours.

MDA-MB-468 cells [2] = assay: Anti-proliferative effect on MDA-MB-468 cells, IC50 (MTT); assay type: cell-based; conditions: Homo sapiens, MDA-MB-468, 72 h
Protocol: The compounds of the present invention were tested at different concentrations (from 1000 nM to 1 nM) to assess their ability for inhibiting the proliferation of MDAMB-468 cells. Cells were cultivated in RPMI 1640 (Welgene)+10% FBS (Gibco)+1% penicillin/streptomycin (Gibco) and cultured at 37° C. in a humidified chamber in the presence of 5% C02.
MDA-MB-468 cells cultured in 96-well cell culture plates were treated with the compounds of the present invention and incubated for 72 hours.

HepG2 cells = assay: HepG2 cell viability assay (CCK-8); assay type: cell-based, human; conditions: Homo sapiens, HepG2, 72 h
Protocol: The ability to inhibit the proliferation of HepG2 cells, which are human hepatocellular carcinoma cells, was measured through the in vitro cell viability assay. Cells were cultured at 37° C. in a humidified condition in the presence of 5% CO2 using a culture medium of MEM (Welgene)+10% FBS (Gibco)+1% penicillin/streptomycin (Gibco). […] Cell viability was measured by CCK-8 method using tetrazolium salt, and the ability of the compounds according to the present invention to inhibit cancer cell proliferation was calculated.

IC50 (MDA-MB-468 cells [2]) | IC50 (HepG2 cells) | Structure (SMILES) | inhibition at 0.1 µM (MDA-MB-468 cells [1])
 |  | C=CC(=O)Nc1cnc(-c2cccc([C@H](C)C(=O)Nc3ncc(C4CC4)s3)c2)cn1 [Example 22] | 72%
 |  | C=CC(=O)Nc1ccc(-c2cc(C(C)C(=O)Nc3ncc(C4CC4)s3)ccn2)cn1 (centres unmarked) [Example 50, N-(4-(1-((5-cyclopropylthiazol-2-yl)amino)-1-oxopropan-2-yl)-[2,3′-bipyridine]-6′-yl)acrylamide] | 66%
63 nM | 5 nM | C=CC(=O)Nc1ccc(-c2cccc([C@H](C)C(=O)Nc3ncc(C4CC4)s3)c2)cn1 [Example 14] | 74%
 |  | C=CC(=O)Nc1ccc(-c2cccc([C@H](C)C(=O)Nc3ncc(C(F)(F)F)s3)c2)nn1 [Example 39, (S)-N-(6-(3-(1-oxo-1-((5-(trifluoromethyl)thiazol-2-yl)amino)propan-2-yl)phenyl)pyridazin-3-yl)acrylamide] | 67%
 |  | C=CC(=O)Nc1cnc(-c2cncc(C(C)C(=O)Nc3ncc(Cl)s3)c2)cn1 (centres unmarked) [Example 61, N-(5-(5-(1-((5-chlorothiazol-2-yl)amino)-1-oxopropan-2-yl)pyridin-3-yl)pyrazine-2-yl)acrylamide] | 73%
 |  | C=CC(=O)Nc1cnc(-c2cccc([C@H](C)C(=O)Nc3ncc(C#N)s3)c2)cn1 [Example 25, (S)-N-(5-(3-(1-((5-cyanothiazol-2-yl)amino)-1-oxopropan-2-yl)phenyl)pyrazin-2-yl)acrylamide] | 71%
 |  | C=CC(=O)Nc1cnc(-c2cncc(C(C)C(=O)Nc3ncc(C(C)C)s3)c2)cn1 (centres unmarked) [Example 47, N-(5-(5-(1-((5-isopropylthiazol-2-yl)amino)-1-oxopropan-2-yl)pyridin-3-yl)pyrazin-2-yl) acrylamide] | 72%
 |  | C=CC(=O)Nc1ccc(-c2cccc(C(C)C(=O)Nc3ncc(CC)s3)c2)cn1 (centres unmarked) [Example 4, N-(5-(3-(1-((5-ethylthiazol-2-yl)amino)-1-oxopropan-2-yl)phenyl)pyridin-2-yl)acrylamide] | 56%
 |  | C=CC(=O)Nc1ncc(-c2cccc([C@H](C)C(=O)Nc3ncc(C#N)s3)c2)cc1F [Example 33, (S)-N-(5-(3-(1-((5-cyanothiazol-2-yl)amino)-1-oxopropan-2-yl)phenyl)-3-fluoropyridin-2-yl)acrylamide] | 59%
 |  | C=CC(=O)Nc1ccc(-c2csc(C(C)C(=O)Nc3ncc(C(F)(F)F)s3)c2)cn1 (centres unmarked) [Example 53, N-(5-(5-(1-oxo-1-((5-(trifluoromethyl)thiazol-2-yl)amino)propan-2-yl)thiophen-3-yl)pyridin-2-yl)acrylamide] | 51%
 |  | C=CC(=O)Nc1ccc(-c2ccc(F)c(C(C)C(=O)Nc3ncc(C#N)s3)c2)nn1 (centres unmarked) [Example 11, N-(6-(3-(1-((5-cyanothiazol-2-yl)amino)-1-oxopropane-2-yl)-4-fluorophenyl)pyridazin-3-yl)acrylamide] | 53%
 |  | C=CC(=O)Nc1ccc(-c2cccc(C(C)C(=O)Nc3ncc(C)s3)c2)cn1 (centres unmarked) [Example 1, N-(5-(3-(1-((5-methylthiazol-2-yl)amino)-1-oxopropan-2-yl)phenyl)pyridin-2-yl)acrylamide] | 54%
 |  | C=CC(=O)Nc1ncc(-c2cccc([C@H](C)C(=O)Nc3ncc(C4CC4)s3)c2)cc1F [Example 29] | 75%
 |  | C=CC(=O)Nc1ncc(-c2cccc([C@H](C)C(=O)Nc3ncc(C4CC4)s3)c2)cn1 [Example 27] | 74%
46 nM |  | C[C@H](C(=O)Nc1ncc(C2CC2)s1)c1cccc(-c2ccc(NC(=O)/C=C/CN(C)C)nc2)c1 [Example 15] | 73%
 |  | C=CC(=O)Nc1cnc(-c2cccc([C@H](C)C(=O)Nc3ncc(C(C)C)s3)c2)cn1 [Example 36, (S)-N-(5-(3-(1-((5-isopropylthiazol-2-yl)amino)-1-oxopropan-2-yl)phenyl)pyrazin-2-yl)acrylamide] | 64%
 |  | C=CC(=O)Nc1ccc(-c2cccc([C@H](C)C(=O)Nc3ncc(C(C)C)s3)c2)nn1 [Example 40, (S)-N-(6-(3-(1-((5-isopropylthiazol-2-yl)amino)-1-oxopropan-2-yl)phenyl)pyridazin-3-yl)acrylamide] | 64%
 |  | C=CC(=O)Nc1ccc(-c2cccc([C@H](C)C(=O)Nc3ncc(C4CC4)s3)c2)nn1 [Example 28] | 74%
86 nM | 22 nM | CC(C(=O)Nc1ncc(C2CC2)s1)c1cccc(-c2ccc(NC(=O)/C=C/CN(C)C)nc2)c1 (centres unmarked) [Example 6, (E)-N-(5-(3-(1-((5-cyclopropylthiazol-2-yl)amino)-1-oxopropan-2-yl)phenyl)pyridin-2-yl)-4-(dimethylamino)but-2-enamide] | 66%
 |  | C=CC(=O)Nc1ccc(-c2cncc(C(C)C(=O)Nc3ncc(C(F)(F)F)s3)c2)nn1 (centres unmarked) [Example 49, N-(6-(5-(1-oxo-1-((5-(trifluoromethyl)thiazol-2-yl)amino)propan-2-yl)pyridin-3-yl)pyridazin-3-yl)acrylamide] | 67%
 |  | C=CC(=O)Nc1ccc(-c2cccc([C@H](C)C(=O)Nc3ncc(C(F)(F)F)s3)c2)cn1 [Example 38, (S)-N-(5-(3-(1-oxo-1-((5-(trifluoromethyl)thiazol-2-yl)amino)propan-2-yl)phenyl)pyridin-2-yl)acrylamide] | 64%
32 nM | 9.5 nM | CCc1cnc(NC(=O)[C@@H](C)c2cccc(-c3cnc(N(C)C(=O)/C=C/CN(C)C)c(C#N)c3)c2)s1 [Example 132, (S,E)-N-(3-cyano-5-(3-(1-((5-ethylthiazol-2-yl)amino)-1-oxopropan-2-yl)phenyl)pyridin-2-yl)-4-(dimethylamino)-N-methylbut-2-enamide] | 
59 nM | 8.7 nM | Cc1cc(-c2cccc([C@H](C)C(=O)Nc3ncc(C(F)(F)F)s3)c2)cnc1NC(=O)/C=C/CN(C)C [Example 112, (S,E)-4-(dimethylamino)-N-(3-methyl-5-(3-(1-oxo-1-((5-(trifluoromethyl)thiazol-2-yl)amino)propan-2-yl)phenyl)pyridin-2-yl)but-2-enamide] | 
59 nM | 25 nM | C[C@H](C(=O)Nc1ncc(Cl)s1)c1cccc(-c2cnc(NC(=O)/C=C/CN3CC4CC3CO4)cn2)c1 (stereo partly drawn) [Example 94, (E)-4-(2-oxa-5-azabicyclo[2.2.1]heptan-5-yl)-N-(5-(3-((S)-1-((5-chlorothiazol-2-yl)amino)-1-oxopropan-2-yl)phenyl)pyrazin-2-yl)but-2-enamide] | 
24 nM | 11 nM | CCc1cnc(NC(=O)[C@@H](C)c2cccc(-c3cnc(NC(=O)/C=C/CN4CC5CC4CO5)c(C#N)c3)c2)s1 (stereo partly drawn) [Example 123, (E)-4-(2-oxa-5-azabicyclo[2.2.1]heptan-5-yl)-N-(3-cyano-5-(3-((S)-1-((5-ethylthiazol-2-yl)amino)-1-oxopropan-2-yl)phenyl)pyridin-2-yl)but-2-enamide] | 
26 nM |  | CCc1cnc(NC(=O)[C@@H](C)c2cccc(-c3ccc(NC(=O)/C=C/CN(C)C)nc3)c2)s1 [Example 17, (S,E)-4-(dimethylamino)-N-(5-(3-(1-((5-ethylthiazol-2-yl)amino)-1-oxopropan-2-yl)phenyl)pyridin-2-yl)but-2-enamide] | 70%
 |  | C=CC(=O)Nc1cncc(-c2cccc([C@H](C)C(=O)Nc3ncc(C4CC4)s3)c2)n1 [Example 16] | 53%
32 nM | 4 nM | C[C@H](C(=O)Nc1ncc(C(F)(F)F)s1)c1cccc(-c2cnc(NC(=O)/C=C/CN(C)C)c(C(F)(F)F)c2)c1 [Example 111, (S,E)-4-(dimethylamino)-N-(5-(3-(1-oxo-1-((5-(trifluoromethyl)thiazol-2-yl)amino)propan-2-yl)phenyl)-3-(trifluoromethyl)pyridin-2-yl)but-2-enamide] | 
104 nM | 15 nM | C=CC(=O)Nc1ccc(-c2cccc(C(C)C(=O)Nc3ncc(C4CC4)s3)c2)cn1 (centres unmarked) [Example 2, N-(5-(3-(1-((5-cyclopropylthiazol-2-yl)amino)-1-oxopropan-2-yl)phenyl)pyridin-2-yl)acrylamide] | 50%
54 nM | 9 nM | C=CC(=O)Nc1ncc(-c2cncc(C(C)C(=O)Nc3ncc(C(F)(F)F)s3)c2)cc1C#N (centres unmarked) [Example 88, N-(5-cyano-5′-(1-oxo-1-((5-(trifluoromethyl)thiazol-2-yl)amino)propan-2-yl)-[3,3′-bipyridin]-6-yl)acrylamide] | 
